From the supplement of paper PMC10307832

Assays:
Experiment in all cases: relative viability (nuclei count vs DMSO), 5 days (fraction); higher = more cells survive
CUDC-101 + Crizotinib = compound: C#Cc1cccc(Nc2ncnc3cc(OC)c(OCCCCCCC(=O)NO)cc23)c1 [CUDC-101] + C[C@@H](Oc1cc(-c2cnn(C3CCNCC3)c2)cnc1N)c1c(Cl)ccc(F)c1Cl [Crizotinib] (partner 1 µM)
Outline: (§1)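 For relative viability, nuclei counts in treated wells were divided by those in vehicle wells. Lung cancer cell lines had been pin-tool dosed in 1536-well plates the day after seeding and cultured for 5 days, then fixed and stained in one step (final 0.05% Triton X-100, 1% formaldehyde, 1 ug/ml Hoechst) and imaged at 4×. Doses were one drug alone or a fixed anchor-drug dose plus five library-drug doses (not always all listed) in √10 steps, and values are duplicate-plate medians.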

[1] = compound: C1=CC=C2C(=C1)N=C(S2)C(C#N)C3=NC(=NC=C3)NCCC4=CN=CC=C4 + Nc1nc2[nH]cc(CCc3ccc(C(=O)N[C@@H](CCC(=O)O)C(=O)O)cc3)c2c(=O)[nH]1 [Pemetrexed] (partner 0.2 µM)
Outline: as §1

Vandetanib + Navitoclax = compound: COc1cc2/c(=N/c3ccc(Br)cc3F)nc[nH]c2cc1OCC1CCN(C)CC1 [Vandetanib] + CC1(C)CCC(c2ccc(Cl)cc2)=C(CN2CCN(c3ccc(C(=O)NS(=O)(=O)c4ccc(N[C@H](CCN5CCOCC5)CSc5ccccc5)c(S(=O)(=O)C(F)(F)F)c4)cc3)CC2)C1 [Navitoclax] (partner 0.5 µM)
Outline: as §1

Vandetanib + Alpelisib = compound: COc1cc2/c(=N/c3ccc(Br)cc3F)nc[nH]c2cc1OCC1CCN(C)CC1 [Vandetanib] + Cc1nc(NC(=O)N2CCC[C@H]2C(N)=O)sc1-c1ccnc(C(C)(C)C(F)(F)F)c1 [Alpelisib] (partner 2 µM)
Outline: as §1

Row | Cell Line | relative viability (CUDC-101 + Crizotinib; first compound 0.01 µM) | relative viability (CUDC-101 + Crizotinib; first compound 0.03162 µM) | relative viability (CUDC-101 + Crizotinib; first compound 0.1 µM) | relative viability (CUDC-101 + Crizotinib; first compound 0.3162 µM) | relative viability (CUDC-101 + Crizotinib; first compound 1 µM) | relative viability ([1]; first compound 0.005 µM) | relative viability ([1]; first compound 0.01581 µM) | relative viability ([1]; first compound 0.05 µM) | relative viability ([1]; first compound 0.1581 µM) | relative viability ([1]; first compound 0.5 µM) | relative viability (Vandetanib + Navitoclax; first compound 0.02 µM) | relative viability (Vandetanib + Navitoclax; first compound 0.06325 µM) | relative viability (Vandetanib + Navitoclax; first compound 0.2 µM) | relative viability (Vandetanib + Navitoclax; first compound 0.6325 µM) | relative viability (Vandetanib + Navitoclax; first compound 2 µM) | relative viability (Vandetanib + Alpelisib; first compound 0.02 µM) | relative viability (Vandetanib + Alpelisib; first compound 0.06325 µM) | relative viability (Vandetanib + Alpelisib; first compound 0.2 µM) | relative viability (Vandetanib + Alpelisib; first compound 0.6325 µM) | relative viability (Vandetanib + Alpelisib; first compound 2 µM)
1 | HARA | 0.904 | 0.866 | 0.89 | 0.799 | 0.395 | 0.271 | 0.205 | 0.259 | 0.283 | 0.305 | 1.1 | 0.996 | 1.13 | 1.07 | 1.15 | 0.812 | 0.76 | 0.861 | 0.821 | 0.537
2 | HCC-15 | 0.804 | 0.836 | 0.798 | 0.843 | 0.715 | 0.215 | 0.23 | 0.223 | 0.228 | 0.227 | 0.685 | 0.702 | 0.682 | 0.756 | 0.649 | 0.877 | 0.84 | 0.93 | 0.874 | 0.793
3 | HCC-44 | 0.661 | 0.712 | 0.752 | 0.779 | 0.748 | 0.723 | 0.677 | 0.668 | 0.648 | 0.675 | 1.05 | 1.02 | 0.93 | 0.976 | 0.947 | 0.799 | 0.812 | 0.999 | 0.807 | 0.762
4 | IA-LM | 0.944 | 0.91 | 0.868 | 0.587 | 0.466 |  |  |  |  |  | 0.648 | 0.661 | 0.878 | 1.1 | 1.29 | 0.588 | 0.783 | 0.791 | 0.961 | 0.811
5 | LCLC-103H | 0.891 | 0.916 | 1.08 | 1.08 | 0.957 | 0.497 | 0.502 | 0.458 | 0.461 | 0.468 |  |  |  |  |  | 0.923 | 0.898 | 0.983 | 0.972 | 0.943
6 | NCI-H358 | 0.558 | 0.581 | 0.435 | 0.497 | 0.236 | 0.265 | 0.173 | 0.169 | 0.165 | 0.188 |  |  |  |  |  | 0.741 | 0.733 | 0.175 | 0.533 | 0.385
7 | NCI-H522 |  |  |  |  |  | 1.22 | 0.698 | 1.01 | 0.807 | 1.03 |  |  |  |  |  |  |  |  |  | 
8 | NCI-H650 | 0.835 | 0.783 | 0.771 | 0.532 | 0.454 | 0.938 | 0.879 | 0.905 | 0.924 | 1.14 |  |  |  |  |  | 1.13 | 0.998 | 1.08 | 1.04 | 0.905
9 | NCI-H661 | 1.07 | 1.08 | 0.954 | 1.03 | 0.943 | 0.84 | 0.916 | 0.85 | 0.904 | 0.876 |  |  |  |  |  | 0.602 | 0.565 | 0.604 | 0.441 | 0.582
10 | NCI-H727 | 0.913 | 0.931 | 0.738 | 0.647 | 0.361 |  |  |  |  |  | 0.45 | 0.468 | 0.528 | 0.449 | 0.287 | 0.619 | 0.56 | 0.405 | 0.496 | 0.322
11 | NCI-H1299 | 0.926 | 0.957 | 0.998 | 0.837 | 0.934 |  |  |  |  |  | 1 | 1.01 | 1.05 | 1.08 | 1.03 | 0.956 | 0.997 | 1.07 | 1.09 | 1.04
12 | NCI-H1395 |  |  |  |  |  | 0.71 |  | 0.949 | 1.13 | 0.952 | 1.11 | 1.06 | 1.04 | 1.25 | 1.29 | 1.03 | 1.28 | 1.22 | 1.04 | 0.998
13 | NCI-H1563 | 0.721 | 0.874 | 0.891 | 0.791 | 0.68 | 0.751 | 0.728 | 0.696 | 0.779 | 0.764 |  |  |  |  |  | 0.852 | 0.958 | 0.88 | 0.904 | 0.916
14 | NCI-H1648 |  |  |  |  |  |  | 0.682 |  | 0.673 | 0.652 |  |  |  |  |  |  |  |  |  | 
15 | NCI-H1650 | 0.859 | 0.782 | 0.942 | 0.796 | 0.595 | 0.382 | 0.385 | 0.395 | 0.353 | 0.27 | 1.15 | 1.02 |  | 1.1 | 1.13 |  |  |  |  | 
16 | NCI-H1703 | 1.07 | 0.707 | 0.765 | 0.712 | 0.477 |  |  |  |  |  | 1.15 |  | 1.27 | 0.575 | 0.256 | 0.306 |  | 0.347 | 0.284 | 0.222
17 | NCI-H1793 |  |  |  |  |  |  | 0.799 | 0.851 | 1.07 | 1.1 | 0.57 | 0.338 | 0.488 | 0.319 | 0.389 | 0.65 | 0.635 | 0.623 | 0.756 | 0.512
18 | NCI-H2342 |  |  |  |  |  | 0.823 | 0.716 | 0.697 | 0.85 | 0.81 |  |  |  |  |  |  |  |  |  | 
19 | SW 900 |  |  |  |  |  | 0.39 | 0.471 | 0.484 | 0.521 | 0.482 |  |  |  |  |  |  |  |  |  | 
